Test results as given in patent US10947271B2, “Antibacterial agents” (THE UNIVERSITY OF QUEENSLAND, priority 2014, dated 2021).

Columns and labels:
[1] = Stability of compounds in human plasma
Method: Briefly test compounds (20 μM) were prepared from a 1 mM stock solution. The human plasma sample (200 μl) was diluted with 160 μl phosphate-buffer saline (PBS, pH 7.4) to a concentration of 50% v/v before use. Solutions were then vortexed and placed on a 37° C. shaker and shaken gently for 10 minutes. 40 μl of the test compounds were then added to the plasma sample and vortexed. For the reaction time t=0 hour, 50 μl of sample was immediately transferred into an eppendorf tube and quenched with 150 μl cold acetonitrile. The remaining plasma solution was incubated and shaken at 37° C. Other samples were collected at time points of 0, 1, 3, 6 and 24 hours whereby 50 μl aliquots were removed and quenched with 150 μl cold acetonitrile. All samples were placed in a 4° C. fridge for 10 minutes then centrifuged at 3000 rpm for 15 minutes. The supernatant (100 μl) was transferred to a glass vial insert for LCMS analysis. The percentage of test compounds remaining at the individual time points relative to sample at time point 0 hour were reported.
Plasma: Human Plasma (Pooled Normal Human Plasma Heparin Anticoagulant 50 mL (IPLA-2 N-04 lot IR09-1001, originally from Innovative Research and imported by BioCore).
All compounds in 100% water (40 μL in 400 μL assay volume equivalent […])
Compounds: 40 μL of the vancomycin derivative solution was added to 160 μL of PBS (pH 7.4) respectively in an Eppendorf tube. 600 μL of cold acetonitrile was added, the tube vortexed and transferred to a glass vial for LC-MS analysis.
Eucatropine: 200 μL of plasma and 190 μL of buffer were vortexed, shaken at 37° C. for 10 minutes. 10 μL of eucatropine solution was then added and the tube vortexed. A 50 μL aliquot was immediately transferred to an Eppendorf tube, 150 μL of cold acetonitrile added and the tube transferred to a 4° C. fridge for 10 minutes. The remaining plasma solution was then transferred to the incubator and shaken at 37° C. The tube was retrieved from the fridge, centrifuged at 3000 rpm for 15 min and 100 μL of supernatant transferred to a glass vial insert for LC-MS analysis. 50 μL aliquots were processed as above at 1, […], 3, 6 and 24 hours and 5 μL was injected into triple quad MS system for analysis. Vancomycin derivatives: 200 μL of plasma and 160 μL of buffer were vortexed and shaken at 37° C. for 10 minutes. 40 μL of compound was then added and the sample was processed as above.

[2] = system: Staphylococcus aureus MRSA ATCC 43300; experiment: MIC assay, S. aureus MRSA ATCC 43300; assay type: cell-based; conditions: 24 h incubation, visual reading
Outline: (§1)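 Twofold broth microdilution in Mueller Hinton broth; compounds tested from 8 μg/ml to 0.003 μg/ml. Mid-log cultures were inoculated at 5×10e5 CFU/mL and incubated 24 h at 37° C. MIC was the lowest concentration with no visible growth.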

[3] = system: Streptococcus pneumoniae MDR ATCC 700677; experiment: MIC assay, S. pneumoniae MDR ATCC 700677; assay type: cell-based; conditions: 24 h incubation, visual reading
Outline: as §1

[4] = system: Enterococcus faecium MDR Van A ATCC 51559; experiment: MIC assay, E. faecium MDR Van A ATCC 51559; assay type: cell-based; conditions: 24 h incubation, visual reading
Outline: as §1

[5] = 0 h (reference time point), 50% human plasma/PBS pH 7.4, 37° C.
[6] = 1 h, 50% human plasma/PBS pH 7.4, 37° C.
[7] = 3 h, 50% human plasma/PBS pH 7.4, 37° C.
[8] = 6 h, 50% human plasma/PBS pH 7.4, 37° C.
[9] = 24 h, 50% human plasma/PBS pH 7.4, 37° C.

Row | Compound | % compound remaining after incubation in 50% human plasma [1, 5] [%] | % compound remaining after incubation in 50% human plasma [1, 6] [%] | % compound remaining after incubation in 50% human plasma [1, 7] [%] | % compound remaining after incubation in 50% human plasma [1, 8] [%] | % compound remaining after incubation in 50% human plasma [1, 9] [%] | Minimum Inhibitory Concentration (MIC) Staph. aureus ATCC43300 [2] | Minimum Inhibitory Concentration (MIC) S. pneumoniae ATCC 700677 [3] | Minimum Inhibitory Concentration (MIC) E. faecium ATCC51559 [4] | % compound remaining after incubation in 50% human plasma ([1]; human, plasma, 0 h, pH 7.4) [%] | % compound remaining after incubation in 50% human plasma ([1]; human, plasma, 1 h, pH 7.4) [%] | % compound remaining after incubation in 50% human plasma ([1]; human, plasma, 3 h, pH 7.4) [%] | % compound remaining after incubation in 50% human plasma ([1]; human, plasma, 6 h, pH 7.4) [%] | % compound remaining after incubation in 50% human plasma ([1]; human, plasma, 24 h, pH 7.4) [%]
1 | CCCCCCCCCCC(=O)NCC(=O)N[C@@H](CO)C(=O)N[C@@H](CCCCN)C(=O)N[C@@H](CCCCN)C(=O)N[C@@H](CCCCN)C(=O)N[C@@H](CCCCNC(=O)[C@H]1NC(=O)[C@H]2NC(=O)[C@H](NC(=O)[C@@H]3NC(=O)[C@H](CC(N)=O)NC(=O)[C@H](NC(=O)[C@@H](CC(C)C)NC)[C@H](O)c4ccc(c(Cl)c4)Oc4cc3cc(c4O[C@@H]3O[C@H](CO)[C@@H](O)[C@H](O)[C@H]3O[C@H]3C[C@](C)(N)[C@H](O)[C@H](C)O3)Oc3ccc(cc3Cl)[C@H]2O)c2ccc(O)c(c2)-c2c(O)cc(O)cc21)C(=O)O [MCC_000082, nC10CO-GSKKK-K(Vanc)-OH] | 100 | 136 | 252 | 241 | 73 |  |  |  |  |  |  |  | 
2 | CNC(CC(C)C)C(=O)NC1C(=O)NC(CC(N)=O)C(=O)NC2C(=O)NC3C(=O)NC(C(=O)NC(C(=O)NCCCCC(NC(=O)C(CCCCN)NC(=O)C(CCCCN)NC(=O)C(CCCCNC(=O)c4ccc(Oc5ccccc5)cc4)NC(=O)c4ccc(Oc5ccccc5)cc4)C(=O)O)c4cc(O)cc(O)c4-c4cc3ccc4O)C(O)c3ccc(c(Cl)c3)Oc3cc2cc(c3OC2OC(CO)C(O)C(O)C2OC2CC(C)(N)C(O)C(C)O2)Oc2ccc(cc2Cl)C1O (stereo not shown) [MCC_000217, (4-PhO-PhCO)-K(4-PhO-PhCO)-KK-K(Vanc)-OH] | 100 | 107 |  | 103 | 99 | xxxxx (xxxxx = <0.01) | xxxxx (xxxxx = <0.01) | xx (xx = 1-4) |  |  |  |  | 
3 | CCCCCCCCCCCCCC(=O)N[C@@H](CCCCN)C(=O)N[C@@H](CCCCN)C(=O)N[C@@H](CCCCN)C(=O)N[C@@H](CCCCNC(=O)[C@H]1NC(=O)[C@H]2NC(=O)[C@H](NC(=O)[C@@H]3NC(=O)[C@H](CC(N)=O)NC(=O)[C@H](NC(=O)[C@@H](CC(C)C)NC)[C@H](O)c4ccc(c(Cl)c4)Oc4cc3cc(c4O[C@@H]3O[C@H](CO)[C@@H](O)[C@H](O)[C@H]3O[C@H]3C[C@](C)(N)[C@H](O)[C@H](C)O3)Oc3ccc(cc3Cl)[C@H]2O)c2ccc(O)c(c2)-c2c(O)cc(O)cc21)C(=O)O [MCC_000223, nC13CO-KKK-K(Vanc)-OH] | 100 | 174 | 164 | 170 | 139 | xxxxx (xxxxx = <0.01) | xxxxx (xxxxx = <0.01) | xxx (xxx = 0.1-<1) |  |  |  |  | 
4 | CCCCCCCCCCCCCC(=O)N[C@@H](CCCCN)C(=O)N[C@@H](CCCCN)C(=O)NCC(=O)NCCNC(=O)[C@H]1NC(=O)[C@H]2NC(=O)[C@H](NC(=O)[C@@H]3NC(=O)[C@H](CC(N)=O)NC(=O)[C@H](NC(=O)[C@@H](CC(C)C)NC)[C@H](O)c4ccc(c(Cl)c4)Oc4cc3cc(c4O[C@@H]3O[C@H](CO)[C@@H](O)[C@H](O)[C@H]3O[C@H]3C[C@](C)(N)[C@H](O)[C@H](C)O3)Oc3ccc(cc3Cl)[C@H]2O)c2ccc(O)c(c2)-c2c(O)cc(O)cc21 [MCC_000226, nC13CO-KKG-NHC2NH-Vanc] | 100 | 98 | 137 | 85 | 87 | xxxxx (xxxxx = <0.01) | xxxxx (xxxxx = <0.01) | xxx (xxx = 0.1-<1) |  |  |  |  | 

Results, then the compound that gave them:

Row | % compound remaining after incubation in 50% human plasma [1, 5] [%] | % compound remaining after incubation in 50% human plasma [1, 6] [%] | % compound remaining after incubation in 50% human plasma [1, 7] [%] | % compound remaining after incubation in 50% human plasma [1, 8] [%] | % compound remaining after incubation in 50% human plasma [1, 9] [%] | Minimum Inhibitory Concentration (MIC) Staph. aureus ATCC43300 [2] | Minimum Inhibitory Concentration (MIC) S. pneumoniae ATCC 700677 [3] | Minimum Inhibitory Concentration (MIC) E. faecium ATCC51559 [4] | % compound remaining after incubation in 50% human plasma ([1]; human, plasma, 0 h, pH 7.4) [%] | % compound remaining after incubation in 50% human plasma ([1]; human, plasma, 1 h, pH 7.4) [%] | % compound remaining after incubation in 50% human plasma ([1]; human, plasma, 3 h, pH 7.4) [%] | % compound remaining after incubation in 50% human plasma ([1]; human, plasma, 6 h, pH 7.4) [%] | % compound remaining after incubation in 50% human plasma ([1]; human, plasma, 24 h, pH 7.4) [%] | Compound
5 | 100 | 102 | 102 | 93 | 94 | xxxxx (xxxxx = <0.01) | xxxxx (xxxxx = <0.01) | xx (xx = 1-4) |  |  |  |  |  | CCCCCCCCCCCCCC(=O)N[C@H](CCCCN)C(=O)N[C@H](CCCCN)C(=O)NCC(=O)NCCNC(=O)[C@H]1NC(=O)[C@H]2NC(=O)[C@H](NC(=O)[C@@H]3NC(=O)[C@H](CC(N)=O)NC(=O)[C@H](NC(=O)[C@@H](CC(C)C)NC)[C@H](O)c4ccc(c(Cl)c4)Oc4cc3cc(c4O[C@@H]3O[C@H](CO)[C@@H](O)[C@H](O)[C@H]3O[C@H]3C[C@](C)(N)[C@H](O)[C@H](C)O3)Oc3ccc(cc3Cl)[C@H]2O)c2ccc(O)c(c2)-c2c(O)cc(O)cc21 [MCC_000227, nC13CO-kkG-NHC2NH-Vanc]
6 | 100 | 87 | 87 | 83 | 93 | xxxx (xxxx = 0.01-<0.1) | xxx (xxx = 0.1-<1) | xxxx (xxxx = 0.01-<0.1) |  |  |  |  |  | CCCCCCCCCCC(=O)N[C@@H](CCCCN)C(=O)N[C@@H](CCCCN)C(=O)N[C@@H](CCCCN)C(=O)N[C@@H](CCCCNC(=O)[C@H]1NC(=O)[C@H]2NC(=O)[C@H](NC(=O)[C@@H]3NC(=O)[C@H](CC(N)=O)NC(=O)[C@H](NC(=O)[C@@H](CC(C)C)NC)[C@H](O)c4ccc(c(Cl)c4)Oc4cc3cc(c4O[C@@H]3O[C@H](CO)[C@@H](O)[C@H](O)[C@H]3O[C@H]3C[C@](C)(N)[C@H](O)[C@H](C)O3)Oc3ccc(cc3Cl)[C@H]2O)c2ccc(O)c(c2)-c2c(O)cc(O)cc21)C(=O)O [MCC_000229, nC10CO-KKK-K(Vanc)-OH]
7 |  |  |  |  |  |  |  |  | 100 | 77 | 64 | 51 | 3 | nC13CO-KKK-C(SS-nEt-NH-Vanc)-OH [MCC_000535, reference compound]
